“And” between values parts separate entries of the source, which are not always exact repeats. Equal entries are not always repeated. Inconclusive results and toxic doses are left out.
Tested on: P388 leukemia ip, CD2F1 mice, survival T/C
Test: NCI In Vivo Anticancer Drug Screen. Data for tumor model P388 Leukemia (intraperitoneal) in CD2F1 (CDF1) mice
Conditions: endpoint: median survival time, higher = longer survival
Summary of the method: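 Mice carrying the transplanted tumor received test compound or vehicle. Survival was recorded in each group, and the value is the treated-group measurement divided by that of the vehicle-treated control group.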

`COc1cc(C)c(C2NC(=O)c3ccccc3N2)cc1C` (centres undefined) was tested, and the T/C (dose: 50.0 mg/kg/injection, schedule: Q01DX005 (ip), vehicle: Klucel (hydroxypropylcellulose) (HPC)) was 104 % of control and 111 % of control, the T/C (dose: 100.0 mg/kg/injection, schedule: Q01DX005 (ip), vehicle: Klucel (hydroxypropylcellulose) (HPC)) was 103 % of control and 112 % of control and the T/C (dose: 172.0 mg/kg/injection, schedule: Q01DX005 (ip), vehicle: Klucel (hydroxypropylcellulose) (HPC)) was 109 % of control. For the same compound, the T/C (dose: 200.0 mg/kg/injection, schedule: Q01DX005 (ip), vehicle: Klucel (hydroxypropylcellulose) (HPC)) was 112 % of control and 121 % of control, the T/C (dose: 288.0 mg/kg/injection, schedule: Q01DX005 (ip), vehicle: Klucel (hydroxypropylcellulose) (HPC)) was 118 % of control and the T/C (dose: 800.0 mg/kg/injection, schedule: Q01DX005 (ip), vehicle: Klucel (hydroxypropylcellulose) (HPC)) was 117 % of control. For the same compound, the T/C (dose: 1333.0 mg/kg/injection, schedule: Q01DX005 (ip), vehicle: Klucel (hydroxypropylcellulose) (HPC)) was 160 % of control.

`S=C(S)N(Cc1ccccc1)Cc1ccccc1` (tested in a mixture with another compound) was tested, and the T/C (dose: 60.0 mg/kg/injection, schedule: Q01DX005 (ip), vehicle: saline with Tween-80) was 105 % of control, the T/C (dose: 120.0 mg/kg/injection, schedule: Q01DX005 (ip), vehicle: saline with Tween-80) was 105 % of control and the T/C (dose: 240.0 mg/kg/injection, schedule: Q01DX005 (ip), vehicle: saline with Tween-80) was 101 % of control.

For `O=C1c2cc(Cl)ccc2OC2CCON12` (centres undefined), the T/C (dose: 50.0 mg/kg/injection, schedule: Q01DX009 (ip), vehicle: Klucel (hydroxypropylcellulose) (HPC)) was 108 % of control, the T/C (dose: 100.0 mg/kg/injection, schedule: Q01DX009 (ip), vehicle: Klucel (hydroxypropylcellulose) (HPC)) was 110 % of control and the T/C (dose: 200.0 mg/kg/injection, schedule: Q01DX009 (ip), vehicle: Klucel (hydroxypropylcellulose) (HPC)) was 116 % of control.

For `CC1COCC(C)OC(C)COCC(C)OC(=O)COCC(=O)O1` (centres undefined), the T/C (dose: 100.0 mg/kg/injection, schedule: Q04DX003 (ip), vehicle: Klucel (hydroxypropylcellulose) (HPC)) was 104 % of control, the T/C (dose: 200.0 mg/kg/injection, schedule: Q04DX003 (ip), vehicle: Klucel (hydroxypropylcellulose) (HPC)) was 110 % of control and the T/C (dose: 400.0 mg/kg/injection, schedule: Q04DX003 (ip), vehicle: Klucel (hydroxypropylcellulose) (HPC)) was 103 % of control.

`O=NN(Cc1cccnc1)C(=O)NC1CCCCC1` was tested, and the T/C (dose: 25.0 mg/kg/injection, schedule: Q01DX001 (ip), vehicle: distilled water + Tween-80) was 109 % of control, the T/C (dose: 50.0 mg/kg/injection, schedule: Q01DX001 (ip), vehicle: distilled water + Tween-80) was 98 % of control and the T/C (dose: 100.0 mg/kg/injection, schedule: Q01DX001 (ip), vehicle: distilled water + Tween-80) was 100 % of control.

Source: PubChem BioAssay AID330 (DTP/NCI, 2004)
